Assay results as given in patent US20210106542A1, “COMPOSITION AND METHOD FOR INHIBITING PLATELET AGGREGATION” (priority 2015, published 2021).

What was measured:
SAPs = experiment: SAP reduction compared to known anti-platelet drugs; type: cell-based, human
Procedure: SAPs were analyzed in the presence of resveratrol, quercetin, and naltrexone and compared to known anti-platelet drugs. Student's t-test with Turkey Post Hoc correction was used to determine significance levels comparing untreated to drug treated samples. The appropriate doses for other anti-platelet drugs were established by routine clinical use.

thrombin production = experiment: Thrombin generation test; type: biochemical, human
Procedure: Thrombin generation test, a clinical test to determine if a drug impedes blood clotting, was conducted as described below. […] The results are shown in Table 11, below, and in FIG. 5. The RQN combination decreased thrombin in a manner similar to other commonly used anti-platelet drugs, further indicating the safety of the RQN combination.

[1] = system: superactivated platelets (SAPs); experiment: SAP inhibition by combinatorial drug treatment (flow cytometry of PRP); type: cell-based, human; conditions: 50 μM; PRP 30 minutes at 37° C.; normalized relative to Control
Procedure: A venipuncture sample of 10 mL of blood is obtained from each patient. Of the 10 mL, a 3 mL aliquot of blood is added to a tube containing 0.5 mL of acid-citrate-dextrose solution (38 mM citric acid, 75 mM sodium citrate, 135 mM glucose) to prevent clotting. […] After centrifuging at 1100 rpm for 10 minutes at room temperature, platelet rich plasma (PRP), which is the upper layer, is removed. The PRP is transferred to a new tube, leaving about 0.5 mL above the buffy coat layer. The PRP-containing tube is incubated with 10 μL of thrombin and convulxin, two agonists that activate the platelets, for five minutes. […] APC-SA recognizes superactivated platelets that more readily bind the biotinylated fibrinogen to their surface. […]
Each sample is analyzed by a Beckman Coulter CyAn flow cytometer (Beckman Coulter, Fullerton, Calif.). Results are analyzed by the Summit program (Beckman Coulter). […] The SAPs are expressed as a percentage of the total number of events in the sample. […]
Aliquots of platelet rich plasma (PRP) were incubated with aqueous saline solutions of resveratrol only, quercetin only, naltrexone only, and with an admixture of resveratrol, quercetin and naltrexone (RQN) for a time period of 30 minutes at 37° C. […] Multi-color immunofluorescence was noted, and analyzed as described in Example 1, above.

[2] = system: control subject platelets; experiment: SAP levels at varying doses of R, Q, N alone or in combination, control subject; type: cell-based, human; conditions: control patient
Procedure: (§1) Resveratrol, quercetin and naltrexone were tested in vitro using 100-microliter assay solutions with (A) a control subject platelets and (B) a POAG subject platelets. A marked reduction in SAPs at 1 μM resveratrol, 1 μM quercetin, 1 μM naltrexone in both the control subject platelets and the POAG patient's platelets was observed, representing a synergistic decrease as compared to the compounds alone.

POAG subject platelets = experiment: SAP levels at varying doses of R, Q, N alone or in combination, POAG subject; type: cell-based, human; conditions: POAG patient
Procedure: as §1

[3] = cited from earlier work; for Bioavailability: literature reference

CC(=O)Oc1ccccc1C(=O)O [Aspirin]
SAP % Decrease (SAPs; 100 μM, Alzheimer's (n = 6)): −17.32% | SAP % Decrease (SAPs; 100 μM, Control (n = 6)): −17.00% | SAP % Decrease (SAPs; 100 μM, POAG (n = 6)): −26.69% | Thrombin % Decrease (thrombin production; 100 μM, Alzheimer's (n = 6)): −75.46% | Thrombin % Decrease (thrombin production; 100 μM, Control (n = 6)): −76.05% | Thrombin % Decrease (thrombin production; 100 μM, POAG (n = 6)): −104.39%

O=C(NC[C@H]1CN(c2ccc(N3CCOCC3=O)cc2)C(=O)O1)c1ccc(Cl)s1 [Rivaroxaban]
SAP % Decrease (SAPs; 1 μM, Alzheimer's (n = 6)): −15.63% | SAP % Decrease (SAPs; 1 μM, Control (n = 6)): −23.38% | SAP % Decrease (SAPs; 1 μM, POAG (n = 6)): −48.73% | Thrombin % Decrease (thrombin production; 1 μM, Alzheimer's (n = 6)): −186.56% | Thrombin % Decrease (thrombin production; 1 μM, Control (n = 6)): −183.06% | Thrombin % Decrease (thrombin production; 1 μM, POAG (n = 6)): −184.65%

Dabigatran
SAP % Decrease (SAPs; 100 μM, Alzheimer's (n = 6)): −8.09% | SAP % Decrease (SAPs; 100 μM, Control (n = 6)): −0.16% | SAP % Decrease (SAPs; 100 μM, POAG (n = 6)): −11.21% | Thrombin % Decrease (thrombin production; 100 μM, Alzheimer's (n = 6)): −109.55% | Thrombin % Decrease (thrombin production; 100 μM, Control (n = 6)): −101.97% | Thrombin % Decrease (thrombin production; 100 μM, POAG (n = 6)): −100.45%

O=C1CC[C@@]2(O)[C@H]3Cc4ccc(O)c5c4[C@@]2(CCN3CC2CC2)[C@H]1O5 [Naltrexone, 17-(cyclopropylmethyl)-4,5α-epoxy-3,14-dihydroxymorphinan-6-one]
% Reduction in SAPs [1]: 52.2% | % SAPs [1]: 47.8% | SAP % ([2]; R/Q/N 0/0/1 uM): 30.80% | SAP % Change ([2]; R/Q/N 0/0/1 uM): −15.13% | SAP % ([2]; R/Q/N 0/0/10 uM): 20.77% | SAP % Change ([2]; R/Q/N 0/0/10 uM): −42.77% | SAP % ([2]; R/Q/N 0/0/50 uM): 18.03% | SAP % Change ([2]; R/Q/N 0/0/50 uM): −50.32% | SAP % (POAG subject platelets; R/Q/N 0/0/1 uM): 44.27% | SAP % Change (POAG subject platelets; R/Q/N 0/0/1 uM): −22.17% | SAP % (POAG subject platelets; R/Q/N 0/0/10 uM): 40.84% | SAP % Change (POAG subject platelets; R/Q/N 0/0/10 uM): −28.20% | SAP % (POAG subject platelets; R/Q/N 0/0/50 uM): 38.93% | SAP % Change (POAG subject platelets; R/Q/N 0/0/50 uM): −31.56% | Bioavailability [3]: 33%^3

Oc1ccc(/C=C/c2cc(O)cc(O)c2)cc1 [Resveratrol, 3,5,4′-trihydroxy-trans-stilbene]
SAP % ([2]; R/Q/N 1/0/0 uM): 32.20% | SAP % Change ([2]; R/Q/N 1/0/0 uM): −11.27% | SAP % ([2]; R/Q/N 5/0/0 uM): 30.98% | SAP % Change ([2]; R/Q/N 5/0/0 uM): −14.63% | SAP % ([2]; R/Q/N 10/0/0 uM): 30.24% | SAP % Change ([2]; R/Q/N 10/0/0 uM): −16.67% | SAP % (POAG subject platelets; R/Q/N 1/0/0 uM): 53.30% | SAP % Change (POAG subject platelets; R/Q/N 1/0/0 uM): −6.29% | SAP % (POAG subject platelets; R/Q/N 5/0/0 uM): 53.78% | SAP % Change (POAG subject platelets; R/Q/N 5/0/0 uM): −5.45% | SAP % (POAG subject platelets; R/Q/N 10/0/0 uM): 43.53% | SAP % Change (POAG subject platelets; R/Q/N 10/0/0 uM): −23.47% | Half-life ([3]; in vivo): 1 to 3 h | Bioavailability [3]: 5%^1

CC(C)Cc1ccc(C(C)C(=O)O)cc1 (stereo not drawn) [Ibuprofen]
SAP % Decrease (SAPs; 100 μM, Alzheimer's (n = 6)): −15.30% | SAP % Decrease (SAPs; 100 μM, Control (n = 6)): −31.40% | SAP % Decrease (SAPs; 100 μM, POAG (n = 6)): −16.84% | Thrombin % Decrease (thrombin production; 100 μM, Alzheimer's (n = 6)): −95.08% | Thrombin % Decrease (thrombin production; 100 μM, Control (n = 6)): −106.45% | Thrombin % Decrease (thrombin production; 100 μM, POAG (n = 6)): −101.37%

O=c1c(O)c(-c2ccc(O)c(O)c2)oc2cc(O)cc(O)c12 [Quercetin, 3,3′,4′5,7-pentahydroxy-2-phenylchromen-4-one]
SAP % ([2]; R/Q/N 0/1/0 uM): 30.36% | SAP % Change ([2]; R/Q/N 0/1/0 uM): −16.34% | SAP % ([2]; R/Q/N 0/5/0 uM): 30.53% | SAP % Change ([2]; R/Q/N 0/5/0 uM): −15.87% | SAP % ([2]; R/Q/N 0/10/0 uM): 21.47% | SAP % Change ([2]; R/Q/N 0/10/0 uM): −40.84% | SAP % (POAG subject platelets; R/Q/N 0/1/0 uM): 49.18% | SAP % Change (POAG subject platelets; R/Q/N 0/1/0 uM): −13.54% | SAP % (POAG subject platelets; R/Q/N 0/5/0 uM): 48.25% | SAP % Change (POAG subject platelets; R/Q/N 0/5/0 uM): −15.17% | SAP % (POAG subject platelets; R/Q/N 0/10/0 uM): 43.27% | SAP % Change (POAG subject platelets; R/Q/N 0/10/0 uM): −23.93% | Bioavailability [3]: 11%^2
